Reference: article PMC12677653, “Inhibition of Tumor Lipogenesis and Growth by Peptide‐Based Targeting of SREBP Activation” (Advanced Science, 2025)

Assays:
[1] = system: Insig1 pS207/Insig2 pS151, SREBP1, Ki67; assay: IHC analysis of mouse tumors derived from Huh7 cells; type: in vivo, BALB/c athymic nude mice; conditions: peptide given as LNP@Insig1/2 loop 1 peptide 10 mg/kg iv, lenvatinib mesylate 2 mg/kg oral
Procedure: Representative micrographs are shown (scale bar: 20 µm). b,c) Cryosections of mouse tumor tissues were prepared for histological analysis. (b) Lipid accumulation was assessed by Oil Red O staining. Representative micrographs are shown (scale bar: 20 µm). (c) Apoptotic cells were detected by TUNEL assay. Representative micrographs are shown (scale bar: 20 µm). d,e) Quantitative analysis of (d) apoptotic areas (TUNEL‐positive regions) and (e) lipid droplet counts (Oil Red O‐positive particles) was performed. Data represent the mean ± SD (n = 4). Statistical significance was determined by one‐way analysis of variance (ANOVA). ** p < 0.01, **** p < 0.0001, ns, no significance.
As described previously,^[ [39] ^] IHC staining was performed using the Vectastain ABC kit (Vector Laboratories) according to the manufacturer's instructions. Sections of paraffin‐embedded xenograft tumors were stained with antibodies against Ki67, SREBP1, Insig1 pS207/Insig2 pS151, and nonspecific IgG was used as a negative control. Paraffin‐embedded human liver tumor sections were stained with antibodies against Ki67, SREBP1, Insig1 pS207/Insig2 pS151, with nonspecific IgG as a negative control. The tissue sections were quantitatively scored according to the percentage of positive cells and staining intensity. […] The intensity of staining was rated on a scale of 0 to 3: 0, negative; 1, weak; 2, moderate; and 3, strong. The study then combined the proportion and intensity scores to obtain a total score (range, 0–8).

Hep3B cells = assay: Cell proliferation, Hep3B; type: cell-based, human; conditions: peptide 25 μM 1 h, IGF1 100 ng/mL 72 h, automated cell counting, n = 3
Procedure: Cells were seeded in 96‐well plates at a density of 5000 cells per well in 100 µL complete growth medium. Following a 24‐hour incubation period (37 °C, 5% CO2) to permit cell adherence, the culture medium was replaced with fresh low serum contained complete medium containing either Insig1/2 loop1 peptide (0–100 µM concentration range) or PBS. Cells were maintained under these conditions for 72 hours. After treatment, the culture medium was carefully aspirated, and cells were washed twice with 200 µL phosphate‐buffered saline (PBS, pH 7.4). Fixed was performed using 4% paraformaldehyde (100 µL/well) for 15 min at room temperature, followed by three PBS washes (200 µL/well) to remove residual fixative. 0.1% (w/v) crystal violet staining solution was prepared by dissolving crystal violet powder in 10% ethanol, followed by filtration through a 0.22 µm membrane. Each well received 80 µL of staining solution and was incubated for 15 min at room temperature, protected from light. […] Plates were agitated at 200 rpm for 10 min to ensure complete dissolution before measuring absorbance at 582 nm using a microplate reader. […]
g) Cell proliferation was assessed by automated cell counting after 72 h of IGF1 stimulation (100 ng ml⁻¹) in Hep3B cells pretreated with Insig1/2 loop 1 peptide (25 μM) for 1 h.

With “RKKRRQRRRLYPCIDSHLGEPHKFKRE [Insig1/2 loop 1 peptide]” the “Insig1 S207/Insig2 S151 phosphorylation in tumors” value [1] was “reduced”, the “Ki67 expression in tumors” value [1] was “reduced” and the “SREBP1 expression and nuclear accumulation in tumors” value [1] was “reduced”. The “IGF1-induced increase in proliferation” value (Hep3B cells) was “inhibited”.
